Literature values in US20190083388A1, “SYNTHENTIC TRANSDERMAL CANNABIDIOL FOR THE TREATMENT OF FOCAL EPILEPSY IN ADULTS” (ZYNERBA PHARMACEUTICALS, INC., priority 2017, published 2019).
Where two headings read alike, the source gives them in different places.

Legend:
CB2 receptors = CB2 receptors (Homo sapiens, UniProt P34972)
[1] = not given; remark: listed apart in the source

Sequence of CB2 receptors (P34972 whole entry): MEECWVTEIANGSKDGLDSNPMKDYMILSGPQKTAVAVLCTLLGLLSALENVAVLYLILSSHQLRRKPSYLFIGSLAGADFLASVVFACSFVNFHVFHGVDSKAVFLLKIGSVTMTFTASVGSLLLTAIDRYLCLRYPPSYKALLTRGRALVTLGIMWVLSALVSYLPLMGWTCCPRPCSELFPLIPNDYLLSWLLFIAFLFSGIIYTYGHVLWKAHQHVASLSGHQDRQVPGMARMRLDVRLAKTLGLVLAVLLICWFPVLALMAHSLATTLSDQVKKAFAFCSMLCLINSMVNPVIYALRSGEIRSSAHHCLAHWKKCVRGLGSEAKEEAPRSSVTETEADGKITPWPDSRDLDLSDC

## C=C(C)C1CCC(C)=CC1c1c(O)cc(CCCCC)cc1O (stereo not shown) [CBD, 2-[3-methyl-6-(1-methylethenyl)-2-cyclohexen-1-yl]-5-pentyl-1,3-benzenediol]
CB2 receptors
  affinity for CB2 receptors: low affinity
oral
  bioavailability: ≈ 6%
Transdermal delivery
  bioavailability: about 25%
[1]
  solubility in water: virtually insoluble
